Data taken from PubChem BioAssay AID2060886 (Molecular Pharmacology Branch, DTP, NCI, 2025).
Each block holds one molecule with its values, some of them ahead of it.

Test system: 653999-131-R-J2-PDC complex spheroids, growth inhibition
Assay: Anticancer human tumor 653999-131-R-J2-PDC patient-derived lung adenocarcinoma cell line growth inhibition [RAS]
Conditions: for IC50: curve of first compound; for viability, T/C: stronger effect = lower value
How it was run: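 Agents were tested in combination matrices in half-log decrements from a top concentration at or near clinical Cmax (10 microM if undetermined). Targets were multi-cell spheroids of tumour lines plus HUVEC and MSC stromal cells.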

[1] = second compound 0.00316 µM, first compound 0.0316 µM
[2] = second compound 0.00316 µM, first compound 0.1 µM
[3] = second compound 0.00316 µM, first compound 0.316 µM
[4] = second compound 0.00316 µM, first compound 1 µM
[5] = second compound 0.01 µM, first compound 0.0316 µM
[6] = second compound 0.01 µM, first compound 0.1 µM
[7] = second compound 0.01 µM, first compound 0.316 µM
[8] = second compound 0.01 µM, first compound 1 µM
[9] = second compound 0.0316 µM, first compound 0.0316 µM
[10] = second compound 0.0316 µM, first compound 0.1 µM
[11] = second compound 0.0316 µM, first compound 0.316 µM
[12] = second compound 0.0316 µM, first compound 1 µM
[13] = second compound 0.1 µM, first compound 0.0316 µM
[14] = second compound 0.1 µM, first compound 0.1 µM
[15] = second compound 0.1 µM, first compound 0.316 µM
[16] = second compound 0.1 µM, first compound 1 µM
[17] = second compound 0.316 µM, first compound 0.0316 µM
[18] = second compound 0.316 µM, first compound 0.1 µM
[19] = second compound 0.316 µM, first compound 0.316 µM
[20] = second compound 0.316 µM, first compound 1 µM
[21] = second compound 1 µM, first compound 0.0316 µM
[22] = second compound 1 µM, first compound 0.1 µM
[23] = second compound 1 µM, first compound 0.316 µM
[24] = second compound 1 µM, first compound 1 µM
[25] = second compound 0.00316 µM, first compound 3.16 µM
[26] = second compound 0.00316 µM, first compound 10 µM
[27] = second compound 0.01 µM, first compound 3.16 µM
[28] = second compound 0.01 µM, first compound 10 µM
[29] = second compound 0.0316 µM, first compound 3.16 µM
[30] = second compound 0.0316 µM, first compound 10 µM
[31] = second compound 0.1 µM, first compound 3.16 µM
[32] = second compound 0.1 µM, first compound 10 µM
[33] = second compound 0.316 µM, first compound 3.16 µM
[34] = second compound 0.316 µM, first compound 10 µM
[35] = second compound 1 µM, first compound 3.16 µM
[36] = second compound 1 µM, first compound 10 µM
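Also: spheroids exposed to the agents for seven days before the readout.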

- IC50 (second compound 0.00316 µM): > 1 µM
- IC50 (second compound 0.01 µM): > 1 µM
- IC50 (second compound 0.0316 µM): > 1 µM
- IC50 (second compound 0.1 µM): > 1 µM
- IC50 (second compound 0.316 µM): > 1 µM
- IC50 (second compound 1 µM): > 1 µM
SMILES: CCN1CCN(Cc2ccc(Nc3ncc(F)c(-c4cc(F)c5nc(C)n(C(C)C)c5c4)n3)nc2)CC1 + C=CC(=O)N1CCN(c2nc(OCC3CCCN3C)nc3c(F)c(-c4nc(N)cc(C)c4C(F)(F)F)c(Cl)cc23)C(C)C1
- viability, T/C (second compound 0.00316 µM, first compound 0.00316 µM): 90.4%
- viability, T/C (second compound 0.00316 µM, first compound 0.01 µM): 79.5%
- viability, T/C [1]: 68.9%
- viability, T/C [2]: 61.7%
- viability, T/C [3]: 80%
- viability, T/C [4]: 75.4%
- viability, T/C (second compound 0.01 µM, first compound 0.00316 µM): 93.4%
- viability, T/C (second compound 0.01 µM, first compound 0.01 µM): 84.1%
- viability, T/C [5]: 69.3%
- viability, T/C [6]: 66.9%
- viability, T/C [7]: 67.7%
- viability, T/C [8]: 69.7%
- viability, T/C (second compound 0.0316 µM, first compound 0.00316 µM): 106%
- viability, T/C (second compound 0.0316 µM, first compound 0.01 µM): 87.1%
- viability, T/C [9]: 75.8%
- viability, T/C [10]: 65.3%
- viability, T/C [11]: 68.1%
- viability, T/C [12]: 81.7%
- viability, T/C (second compound 0.1 µM, first compound 0.00316 µM): 111%
- viability, T/C (second compound 0.1 µM, first compound 0.01 µM): 84%
- viability, T/C [13]: 67.6%
- viability, T/C [14]: 73.7%
- viability, T/C [15]: 63%
- viability, T/C [16]: 67.1%
- viability, T/C (second compound 0.316 µM, first compound 0.00316 µM): 84.8%
- viability, T/C (second compound 0.316 µM, first compound 0.01 µM): 98.6%
- viability, T/C [17]: 78.2%
- viability, T/C [18]: 69.4%
- viability, T/C [19]: 70.7%
- viability, T/C [20]: 70.5%
- viability, T/C (second compound 1 µM, first compound 0.00316 µM): 94%
- viability, T/C (second compound 1 µM, first compound 0.01 µM): 81.3%
- viability, T/C [21]: 63.4%
- viability, T/C [22]: 69.7%
- viability, T/C [23]: 77.6%
- viability, T/C [24]: 102%

- IC50 (second compound 0.00316 µM): > 10 µM
- IC50 (second compound 0.01 µM): > 10 µM
- IC50 (second compound 0.0316 µM): > 10 µM
- IC50 (second compound 0.1 µM): > 10 µM
- IC50 (second compound 0.316 µM): > 10 µM
- IC50 (second compound 1 µM): > 10 µM
SMILES: Cc1nc(N2CCC3(CC2)COC(C)C3N)c(CO)nc1Sc1ccnc(N)c1Cl (stereo unspecified) + C=CC(=O)N1CCN(c2nc(OCC3CCCN3C)nc3c(F)c(-c4nc(N)cc(C)c4C(F)(F)F)c(Cl)cc23)C(C)C1
- viability, T/C [1]: 81.4%
- viability, T/C [2]: 76.7%
- viability, T/C [3]: 77.9%
- viability, T/C [4]: 74.6%
- viability, T/C [25]: 83.3%
- viability, T/C [26]: 78.2%
- viability, T/C [5]: 90.5%
- viability, T/C [6]: 86.5%
- viability, T/C [7]: 78.3%
- viability, T/C [8]: 80.6%
- viability, T/C [27]: 86.9%
- viability, T/C [28]: 63.9%
- viability, T/C [9]: 87.2%
- viability, T/C [10]: 82.6%
- viability, T/C [11]: 93.1%
- viability, T/C [12]: 84.7%
- viability, T/C [29]: 78.1%
- viability, T/C [30]: 63.9%
- viability, T/C [13]: 103%
- viability, T/C [14]: 77.6%
- viability, T/C [15]: 90.2%
- viability, T/C [16]: 73.5%
- viability, T/C [31]: 77%
- viability, T/C [32]: 70%
- viability, T/C [17]: 92%
- viability, T/C [18]: 82%
- viability, T/C [19]: 82.9%
- viability, T/C [20]: 78.4%
- viability, T/C [33]: 80.7%
- viability, T/C [34]: 73.9%
- viability, T/C [21]: 105%
- viability, T/C [22]: 66.7%
- viability, T/C [23]: 74.8%
- viability, T/C [24]: 78.3%
- viability, T/C [35]: 67.3%
- viability, T/C [36]: 82.1%

- IC50 (second compound 0.00316 µM): > 10 µM
- IC50 (second compound 0.01 µM): > 10 µM
- IC50 (second compound 0.0316 µM): > 10 µM
- IC50 (second compound 0.1 µM): > 10 µM
- IC50 (second compound 0.316 µM): > 10 µM
- IC50 (second compound 1 µM): > 10 µM
SMILES: NC1c2ccccc2OC12CCN(c1cnc3c(N4CCCc5ncccc54)n[nH]c3n1)CC2 (stereo unspecified) + C=CC(=O)N1CCN(c2nc(OCC3CCCN3C)nc3c(F)c(-c4nc(N)cc(C)c4C(F)(F)F)c(Cl)cc23)C(C)C1
- viability, T/C [1]: 69.5%
- viability, T/C [2]: 70.1%
- viability, T/C [3]: 80.6%
- viability, T/C [4]: 79.7%
- viability, T/C [25]: 70.5%
- viability, T/C [26]: 64.6%
- viability, T/C [5]: 78.4%
- viability, T/C [6]: 75.2%
- viability, T/C [7]: 78.5%
- viability, T/C [8]: 89.3%
- viability, T/C [27]: 68.6%
- viability, T/C [28]: 69.9%
- viability, T/C [9]: 76.5%
- viability, T/C [10]: 77.7%
- viability, T/C [11]: 82.5%
- viability, T/C [12]: 67.8%
- viability, T/C [29]: 86.4%
- viability, T/C [30]: 81.6%
- viability, T/C [13]: 97.8%
- viability, T/C [14]: 75%
- viability, T/C [15]: 70.2%
- viability, T/C [16]: 83.2%
- viability, T/C [31]: 76.6%
- viability, T/C [32]: 73.3%
- viability, T/C [17]: 86%
- viability, T/C [18]: 89.8%
- viability, T/C [19]: 84.8%
- viability, T/C [20]: 65.5%
- viability, T/C [33]: 88.2%
- viability, T/C [34]: 73.2%
- viability, T/C [21]: 76.6%
- viability, T/C [22]: 67.2%
- viability, T/C [23]: 87.9%
- viability, T/C [24]: 72.9%
- viability, T/C [35]: 85%
- viability, T/C [36]: 66.3%
